Experimental data from patent US7709511B2, “Benzothiazolone derivatives” (AstraZeneca AB, priority 2005, dated 2010).
Where a name gives a salt, the structure may show the parent alone.

Assays:
[1] = molecular target: T1, recombinant human α1D receptor (Homo sapiens, UniProt P25100); experiment: Adrenergic α1D selectivity assay, inhibition of [3H]-prazosin binding to membranes; conditions: HEK293 membranes, [3H]-prazosin 0.3 nM; read-out: α1 bind pIC50 (converted)
T1 construct: made in house; host or cells: HEK293 cells (membranes)
T1 sequence (P25100 1-572): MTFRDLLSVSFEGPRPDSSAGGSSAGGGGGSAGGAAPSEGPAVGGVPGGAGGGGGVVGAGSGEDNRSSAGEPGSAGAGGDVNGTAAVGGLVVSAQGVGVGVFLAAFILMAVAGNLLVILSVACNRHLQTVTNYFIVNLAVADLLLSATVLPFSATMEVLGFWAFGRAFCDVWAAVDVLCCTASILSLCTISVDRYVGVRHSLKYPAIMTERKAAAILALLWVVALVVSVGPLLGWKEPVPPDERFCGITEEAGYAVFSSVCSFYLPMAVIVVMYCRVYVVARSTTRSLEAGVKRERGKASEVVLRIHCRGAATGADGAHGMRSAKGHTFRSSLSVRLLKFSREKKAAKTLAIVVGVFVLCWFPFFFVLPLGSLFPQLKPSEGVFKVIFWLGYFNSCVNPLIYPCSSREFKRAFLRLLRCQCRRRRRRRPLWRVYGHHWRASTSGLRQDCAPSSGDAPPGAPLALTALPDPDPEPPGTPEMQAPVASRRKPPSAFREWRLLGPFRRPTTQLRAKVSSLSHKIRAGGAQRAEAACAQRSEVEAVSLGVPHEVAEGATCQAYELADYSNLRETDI
Experimental: Membranes were prepared from human embryonic kidney 293 (HEK293) cells expressing recombinant human α1D receptor. These were diluted in Assay Buffer (50 mM HEPES, 1 mM EDTA, 0.1% gelatin, pH 7.4) to provide a final concentration of membranes that gave a clear window between maximum and minimum specific binding.
Assays were performed in U-bottomed 96-well polypropylene plates. 10 μL [^3H]-prazosin (0.3 nM final concentration) and 10 μL of test compound (10× final concentration) were added to each test well. For each assay plate 8 replicates were obtained for [^3H]-prazosin binding in the presence of 10 μL vehicle (10% (v/v) DMSO in Assay Buffer; defining maximum binding) or 10 μL BMY7378 (10 μM final concentration; defining non-specific binding (NSB)). Membranes were then added to achieve a final volume of 100 μL. The plates were incubated for 2 hours at room temperature and then filtered onto PEI coated GF/B filter plates, pre-soaked for 1 hour in Assay Buffer, using a 96-well plate Tomtec cell harvester. Five washes with 250 μL wash buffer (50 mM HEPES, 1 mM EDTA, pH 7.4) were performed at 4° C. to remove unbound radioactivity. The plates were dried then sealed from underneath using Packard plate sealers and MicroScint-O (50 μL) was added to each well. The plates were sealed (TopSeal A) and filter-bound radioactivity was measured with a scintillation counter (TopCount, Packard BioScience) using a 3-minute counting protocol.
(§1) Total specific binding (B0) was determined by subtracting the mean NSB from the mean maximum binding. NSB values were also subtracted from values from all other wells. […] Data was fitted to a four parameter logistic equation to determine the compound potency, which was expressed as pIC50 (negative log molar concentration inducing 50% inhibition of [^3H]-prazosin binding).

[2] = molecular target: T2, Adrenergic β2 (Homo sapiens, UniProt P07550); experiment: Alternative adrenergic β2 mediated cAMP production in H292 cells (AlphaScreen cAMP detection); type: cell-based; conditions: for EC50: cAMP, test compounds incubated 60 minutes at room temperature, 300 μM rolipram, read-out: β2 pEC50 (converted); for β2 Int Act: fraction relative to the maximum activity determined for formoterol, 60 minutes incubation
T2 construct: endogenous in cells; host or cells: H292 cells
T2 sequence (P07550 whole entry): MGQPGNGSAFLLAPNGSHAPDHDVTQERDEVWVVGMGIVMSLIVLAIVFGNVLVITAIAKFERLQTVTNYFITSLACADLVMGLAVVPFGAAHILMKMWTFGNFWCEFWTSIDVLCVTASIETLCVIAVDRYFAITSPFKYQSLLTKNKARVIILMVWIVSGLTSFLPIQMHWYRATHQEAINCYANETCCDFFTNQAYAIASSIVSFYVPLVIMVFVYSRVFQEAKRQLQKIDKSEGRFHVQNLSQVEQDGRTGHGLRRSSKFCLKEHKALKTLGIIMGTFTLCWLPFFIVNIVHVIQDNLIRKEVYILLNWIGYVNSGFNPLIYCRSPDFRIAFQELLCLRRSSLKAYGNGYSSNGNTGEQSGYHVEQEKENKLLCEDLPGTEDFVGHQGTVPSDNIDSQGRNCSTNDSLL
Experimental: Alternative Adrenergic β2 Mediated cAMP Production Cell Preparation
H292 cells were grown in 225 cm2 flasks incubator at 37° C., 5% CO2 in RPMI medium containing, 10% (v/v) FBS (foetal bovine serum) and 2 mM L-glutamine.
Adherent H292 cells were removed from tissue culture flasks by treatment with Accutase™ cell detachment solution for 15 minutes. Flasks were incubated for 15 minutes in a humidified incubator at 37° C., 5% CO2. Detached cells were re-suspended in RPMI media (containing 10% (v/v) FBS and 2 mM L-glutamine) at 0.05×10^6 cells per mL. 5000 cells in 100 μL were added to each well of a tissue-culture-treated 96-well plate and the cells incubated overnight in a humidified incubator at 37° C., 5% CO2. The culture media was removed and cells were washed twice with 100 μL assay buffer and replaced with 50 μL assay buffer (HBSS solution containing 10 mM HEPES pH7.4 and 5 mM glucose). Cells were rested at room temperature for 20 minutes after which time 25 μL of rolipram (1.2 mM made up in assay buffer containing 2.4% (v/v) dimethylsulphoxide) was added. Cells were incubated with rolipram for 10 minutes after which time test compounds were added and the cells were incubated for 60 minutes at room temperature. The final rolipram concentration in the assay was 300 μM and final vehicle concentration was 1.6% (v/v) dimethylsulphoxide. The reaction was stopped by removing supernatants, washing once with 100 μL assay buffer and replacing with 50 μL lysis buffer. The cell monolayer was frozen at −80° C. for 30 minutes (or overnight).
AlphaScreen™ cAMP Detection
The concentration of cAMP (cyclic adenosine monophosphate) in the cell lysate was determined using AlphaScreen™ methodology. The frozen cell plate was thawed for 20 minutes on a plate shaker then 10 μL of the cell lysate was transferred to a 96-well white plate. 40 μL of mixed AlphaScreen™ detection beads pre-incubated with biotinylated cAMP, was added to each well and the plate incubated at room temperature for 10 hours in the dark. The AlphaScreen™ signal was measured using an EnVision spectrophotometer (Perkin-Elmer Inc.) with the recommended manufacturer's settings. cAMP concentrations were determined by reference to a calibration curve determined in the same experiment using standard cAMP concentrations. Concentration response curves for agonists were constructed and data was fitted to a four parameter logistic equation to determine both the pEC50 and Intrinsic Activity. Intrinsic Activity was expressed as a fraction relative to the maximum activity determined for formoterol in each experiment.

[3] = molecular target: T3, recombinant human Dopamine Subtype D2s receptors (Homo sapiens, UniProt P14416); experiment: Dopamine D2 selectivity assay, inhibition of [3H]-spiperone binding to membranes; conditions: [3H]-spiperone 0.16 nM; read-out: D2 bind pIC50 (converted)
T3 construct: purchased Perkin Elmer
T3 sequence (P14416 1-414 isoform P14416-2): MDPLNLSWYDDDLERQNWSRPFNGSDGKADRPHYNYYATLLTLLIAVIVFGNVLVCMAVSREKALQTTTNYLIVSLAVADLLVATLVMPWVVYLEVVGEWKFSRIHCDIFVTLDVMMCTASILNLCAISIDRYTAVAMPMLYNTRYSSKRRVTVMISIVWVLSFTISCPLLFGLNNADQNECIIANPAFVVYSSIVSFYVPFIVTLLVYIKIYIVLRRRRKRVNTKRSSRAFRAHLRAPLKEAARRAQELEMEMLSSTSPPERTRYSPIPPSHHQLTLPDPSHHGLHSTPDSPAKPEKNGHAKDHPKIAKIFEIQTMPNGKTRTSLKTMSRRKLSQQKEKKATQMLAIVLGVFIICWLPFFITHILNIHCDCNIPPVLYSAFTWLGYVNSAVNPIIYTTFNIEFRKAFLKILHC
Experimental: Membranes containing recombinant human Dopamine Subtype D2s receptors were obtained from Perkin Elmer. These were diluted in Assay Buffer (50 mM HEPES, 1 mM EDTA, 120 mM NaCl, 0.1% gelatin, pH 7.4) to provide a final concentration of membranes that gave a clear window between maximum and minimum specific binding.
Assays were performed in U-bottomed 96-well polypropylene plates. 30 μL [^3H]-spiperone (0.16 nM final concentration) and 30 μL of test compound (10× final concentration) were added to each test well. For each assay plate 8 replicates were obtained for [^3H]-spiperone binding in the presence of 30 μL vehicle (10% (v/v) DMSO in Assay Buffer; defining maximum binding) or 30 μL Haloperidol (10 μM final concentration; defining non-specific binding (NSB)). Membranes were then added to achieve a final volume of 300 μL. The plates were incubated for 2 hours at room temperature and then filtered onto PEI coated GF/B filter plates, pre-soaked for 1 hour in Assay Buffer, using a 96-well plate Tomtec cell harvester. Five washes with 250 μL wash buffer (50 mM HEPES, 1 mM EDTA, 120 mM NaCl, pH 7.4) were performed at 4° C. to remove unbound radioactivity. The plates were dried then sealed from underneath using Packard plate sealers and MicroScint-O (50 μL) was added to each well. The plates were sealed (TopSeal A) and filter-bound radioactivity was measured with a scintillation counter (TopCount, Packard BioScience) using a 3-minute counting protocol.
as §1, with “[^3H]-spiperone” for “[^3H]-prazosin”

Row | Compound | IC50 [1] | EC50 [2] | β2 Int Act [2] | IC50 [3]
1 | CCN(CC)CCN(CCNCCc1ccc(O)c2[nH]c(=O)sc12)C(=O)CCOCCc1ccccc1C(F)(F)F [Example 17, N-[2-(Diethylamino)ethyl]-N-(2-{[2-(4-hydroxy-2-oxo-2,3-dihydro-1,3-benzothiazol-7-yl)ethyl]amino}ethyl)-3-{2-[2-(trifluoromethyl)phenyl]ethoxy}propanamide ditrifluoroacetate] | 794 nM | 25.1 nM | 0.9 | 
2 | CCN(CC)CCN(CCNCCc1ccc(O)c2[nH]c(=O)sc12)C(=O)CCOCCc1cccc(Cl)c1 [Example 18, 3-[2-(3-Chlorophenyl)ethoxy]-N-[2-(diethylamino)ethyl]-N-(2-{[2-(4-hydroxy-2-oxo-2,3-dihydro-1,3-benzothiazol-7-yl)ethyl]amino}ethyl)propanamide ditrifluoroacetate] | 794 nM | 5.01 nM | 0.7 | 2510 nM
3 | CCN(CC)CCN(CCNCCc1ccc(O)c2[nH]c(=O)sc12)C(=O)CCOCCc1cccc(Cl)c1Cl [Example 20, 3-[2-(2,3-Dichlorophenyl)ethoxy]-N-(2-diethylaminoethyl)-N-(2-{[2-(4-hydroxy-2-oxo-2,3-dihydro-1,3-benzothiazol-7-yl)ethyl]amino}ethyl)propanamide ditrifluoroacetate] | 398 nM | 10 nM | 0.6 | 1580 nM
4 | CCN(CC)CCN(CCNCCc1ccc(O)c2[nH]c(=O)sc12)C(=O)CCOCCc1cccc(F)c1 [Example 22, N-(2-Diethylaminoethyl)-3-[2-(3-fluorophenyl)ethoxy]-N-{2-[2-(4-hydroxy-2-oxo-2,3-dihydro-1,3-benzothiazol-7-yl)ethylamino]ethyl}propanamide dihydrobromide] | 1260 nM | 7.94 nM | 0.8 | 5010 nM
5 | CCN(CC)CCN(CCNCCc1ccc(O)c2[nH]c(=O)sc12)C(=O)CCOCCc1ccc(Cl)c(Cl)c1 [Example 27, 3-[2-(3,4-Dichlorophenyl)ethoxy]-N-(2-diethylaminoethyl)-N-{2-[2-(4-hydroxy-2-oxo-2,3-dihydro-1,3-benzothiazol-7-yl)ethylamino]ethyl}propanamide dihydrobromide] | 1000 nM | 31.6 nM | 0.6 | 3160 nM
6 | CCN(CC)CCN(CCNCCc1ccc(O)c2[nH]c(=O)sc12)C(=O)CCOCCc1cccc(O)c1 [Example 29, N-(2-Diethylaminoethyl)-N-{2-[2-(4-hydroxy-2-oxo-2,3-dihydro-1,3-benzothiazol-7-yl)ethylamino]ethyl}-3-[2-(3-hydroxyphenyl)ethoxy]propanamide dihydrobromide] | 1260 nM | 6.31 nM | 0.8 | 251 nM
7 | CCN(CC)CCN(CCNCCc1ccc(O)c2[nH]c(=O)sc12)C(=O)CCOCCc1ccccc1Cl [Example 31, 3-[2-(2-Chlorophenyl)ethoxy]-N-(2-diethylaminoethyl)-N-{2-[2-(4-hydroxy-2-oxo-2,3-dihydro-1,3-benzothiazol-7-yl)ethylamino]ethyl}propanamide ditrifluoroacetate] | 251 nM | 20 nM | 0.9 | 5010 nM
8 | CCN(CC)CCN(CCNCCc1ccc(O)c2[nH]c(=O)sc12)C(=O)CCOCCc1ccc2ccccc2c1 [Example 32, N-[2-(Diethylamino)ethyl]-N-(2-{[2-(4-hydroxy-2-oxo-2,3-dihydro-1,3-benzothiazol-7-yl)ethyl]amino}ethyl)-3-[2-(2-naphthyl)ethoxy]propanamide] | 631 nM | 10 nM | 0.5 | 794 nM
